Measurements taken from patent US10322110B2, “Imidazole-based antimicrobial agents” (priority 2014, dated 2019).
≈ marks a conversion by molar mass, not a printed value. Like-named read-outs stand apart in the source and are kept apart here.

Assays:
Assay type in all cases: cell-based
[1] = system: Staphylococcus aureus MRSA (COL); assay: broth microdilution MIC assay, Staphylococcus aureus MRSA (COL); conditions: 24 h; for Antibacterial activity Staphylococcus aureus (MRSA): MIC100 class score, broth microdilution; for MIC: Staphylococcus aureus, MRSA, read-out: Antibacterial activity Staphylococcus aureus (MRSA)
[2] = system: Staphylococcus aureus MSSA (Newman); assay: broth microdilution MIC assay, Staphylococcus aureus MSSA (Newman); conditions: for MIC: Staphylococcus aureus; for Antibacterial activity Staphylococcus aureus (MSSA): MIC100 class score, broth microdilution
[3] = system: Streptococcus pneumoniae (Chester, ATCC49619); assay: broth microdilution MIC assay, Streptococcus pneumoniae; conditions: MIC100 class score, 24 h
[4] = 24 h, read-out: Antibacterial activity Staphylococcus aureus (MSSA)

Compound	MIC [2, 4]	MIC [1]	Antibacterial activity Streptococcus pneumoniae [3]	other results
CCCc1nc(-c2csc(-c3ccccc3C(F)(F)F)c2)[nH]c1C [Compound 113]				Antibacterial activity Staphylococcus aureus (MRSA) [1]: 3 (MIC100 of 3-10 μg/ml)
Cc1[nH]c(-c2ccc(-c3cccc(F)c3)s2)nc1-c1ccccc1 [Compound 117]	20 to 50 µg/mL (≈ 59.8 to 150 µM)			
Cc1nc(-c2ccc(-c3ccc(O)cc3F)o2)[nH]c1-c1ccccc1 [Compound 168]	3 to 10 µg/mL (≈ 8.97 to 29.9 µM)	3 to 10 µg/mL (≈ 8.97 to 29.9 µM)		
Brc1ccccc1-c1ccc(-c2ncc(-c3ccccc3)[nH]2)o1 [Compound 83]			3 (MIC100 of 2-5 μg/ml)	
Cc1nc(-c2ccc(-c3ccc4occc4c3)o2)[nH]c1-c1ccccc1 [Compound 159]	3 to 10 µg/mL (≈ 8.81 to 29.4 µM)	20 to 50 µg/mL (≈ 58.8 to 147 µM)		
Fc1ccc(-c2ccc(-c3nc4ccccc4[nH]3)o2)cc1 [Compound 121]			inactive	
Cc1nc(-c2ccc(-c3ccc(O)cc3C(F)(F)F)o2)[nH]c1-c1ccccc1 [Compound 139]	1 to 3 µg/mL (≈ 2.6 to 7.81 µM)	1 to 3 µg/mL (≈ 2.6 to 7.81 µM)		
Cc1[nH]c(-c2ccc(-c3ccccc3C(F)(F)F)o2)nc1-c1cccc(Cl)c1 [Compound 22]			3 (MIC100 of 2-5 μg/ml)	Antibacterial activity Staphylococcus aureus (MSSA) ([2]; 24 h): 2 (MIC100 of 11-201 μg/ml); MIC ([2]; read-out: Antibacterial activity MSSA (Staphylococcus aureus MSSA)): 11 to 201 µg/mL (≈ 27.3 to 499 µM)
Cc1[nH]c(-c2cnn(-c3ccc(F)cc3)c2)nc1-c1ccccc1 [Compound 166]	20 to 50 µg/mL (≈ 62.8 to 157 µM)	20 to 50 µg/mL (≈ 62.8 to 157 µM)		
CCCc1[nH]c(-c2ccc(-c3ccccc3)o2)nc1C [Compound 94]			3 (MIC100 of 2-5 μg/ml)	Antibacterial activity Staphylococcus aureus (MRSA) [1]: 3 (MIC100 of 3-10 μg/ml)
Cc1nc(-c2ccc(-c3ccc(O)c(Cl)c3)o2)[nH]c1-c1ccccc1 [Compound 157]	3 to 10 µg/mL (≈ 8.55 to 28.5 µM)	11 to 201 µg/mL (≈ 31.4 to 573 µM)		
CCCc1[nH]c(-c2ccc(-c3ccc(Cl)cc3Cl)o2)nc1C [Compound 109]				Antibacterial activity Staphylococcus aureus (MRSA) [1]: 2 (MIC100 of 11-201 μg/ml)
CCCc1[nH]c(-c2ccc(-c3ccc(O)cc3C(F)(F)F)o2)nc1C [Compound 110]			3 (MIC100 of 2-5 μg/ml)	Antibacterial activity Staphylococcus aureus (MRSA) [1]: 3 (MIC100 of 3-10 μg/ml)
Cc1nc(-c2ccc(-c3cccc(O)c3)o2)[nH]c1-c1ccccc1 [Compound 145]	11 to 201 µg/mL (≈ 34.8 to 635 µM)	20 to 50 µg/mL (≈ 63.2 to 158 µM)		
Cc1nc(-c2ccc(-c3ccc(O)c(C(F)(F)F)c3)o2)[nH]c1-c1ccccc1 [Compound 155]	3 to 10 µg/mL (≈ 7.81 to 26 µM)	11 to 201 µg/mL (≈ 28.6 to 523 µM)		
Cc1[nH]c(-c2cnn(-c3ccccc3)c2)nc1-c1ccccc1 [Compound 167]		20 to 50 µg/mL (≈ 66.6 to 166 µM)		
FC(F)(F)c1ccccc1-c1ccc(-c2ncc(-c3ccccc3)[nH]2)o1 [Compound 75]	11 to 201 µg/mL (≈ 31 to 567 µM)			
Cc1[nH]c(-c2ccc(-c3ccccc3F)o2)nc1-c1ccc(O)cc1 [Compound 77]			3 (MIC100 of 2-5 μg/ml)	Antibacterial activity Staphylococcus aureus (MSSA) ([2]; 24 h): 3 (MIC100 of 3-10 μg/ml)
Cc1nc(-c2ccc(-c3ccc4cc[nH]c4c3)o2)[nH]c1-c1ccccc1 [Compound 152]	3 to 10 µg/mL (≈ 8.84 to 29.5 µM)	3 to 10 µg/mL (≈ 8.84 to 29.5 µM)		
CCCc1nc(-c2sc(-c3ccccc3C(F)(F)F)c3c2OCCO3)[nH]c1C [Compound 114]				Antibacterial activity Staphylococcus aureus (MRSA) [1]: 3 (MIC100 of 3-10 μg/ml)
Cc1[nH]c(-c2ccc(-c3ccccc3OC(F)(F)F)o2)nc1-c1ccc(O)cc1 [Compound 76]			3 (MIC100 of 2-5 μg/ml)	Antibacterial activity Staphylococcus aureus (MSSA) ([2]; 24 h): 3 (MIC100 of 3-10 μg/ml)
CCCc1nc(-c2ccc(-c3ccccc3N(C)C)o2)[nH]c1C [Compound 98]				Antibacterial activity Staphylococcus aureus (MRSA) [1]: 3 (MIC100 of 3-10 μg/ml)

Compound	MIC [2, 4]	MIC [1]	Antibacterial activity Streptococcus pneumoniae [3]	other results
CCCCc1nc(-c2ccc(-c3ccccc3C(F)(F)F)o2)[nH]c1C [Compound 90]			3 (MIC100 of 2-5 μg/ml)	
Cc1nc(-c2ccc(-c3cc4ccccc4[nH]3)o2)[nH]c1-c1ccccc1 [Compound 160]	3 to 10 µg/mL (≈ 8.84 to 29.5 µM)	11 to 201 µg/mL (≈ 32.4 to 592 µM)		
Cc1nc(-c2ccc(-c3cccc(C(F)(F)F)c3)o2)[nH]c1-c1ccccc1 [Compound 142]	1 to 3 µg/mL (≈ 2.71 to 8.14 µM)	1 to 3 µg/mL (≈ 2.71 to 8.14 µM)		
Cc1[nH]c(-c2csc(-c3cccc(Br)c3)n2)nc1-c1ccccc1 [Compound 14]			3 (MIC100 of 2-5 μg/ml)	
Cc1ccc(-c2nc(-c3nc(-c4ccccc4)c(C)[nH]3)cs2)cc1 [Compound 56]			3 (MIC100 of 2-5 μg/ml)	
Cc1nc(-c2ccc(-c3ccccc3O)o2)[nH]c1-c1ccccc1 [Compound 149]	11 to 201 µg/mL (≈ 34.8 to 635 µM)	20 to 50 µg/mL (≈ 63.2 to 158 µM)		
Cc1nc(-c2ccc(-c3ccc(F)cc3F)o2)[nH]c1-c1ccccc1 [Compound 147]	1 to 3 µg/mL (≈ 2.97 to 8.92 µM)	1 to 3 µg/mL (≈ 2.97 to 8.92 µM)		
Cc1nc(-c2ccc(-c3cccc(F)c3)o2)[nH]c1-c1ccccc1 [Compound 146]	3 to 10 µg/mL (≈ 9.42 to 31.4 µM)	3 to 10 µg/mL (≈ 9.42 to 31.4 µM)		
Cc1nc(-c2ccc(-c3ccccc3Br)o2)[nH]c1C [Compound 84]		11 to 201 µg/mL (≈ 34.7 to 634 µM)		
Fc1ccc(-c2ccc(-c3nc4ccccc4[nH]3)o2)c(F)c1 [Compound 122]			inactive	
Cc1nc(-c2ccc(-c3cccc4cc[nH]c34)o2)[nH]c1-c1ccccc1 [Compound 161]	3 to 10 µg/mL (≈ 8.84 to 29.5 µM)	1 to 3 µg/mL (≈ 2.95 to 8.84 µM)		
Cc1nc(-c2ccc(-c3ccc4cc(O)ccc4c3)o2)[nH]c1-c1ccccc1 [Compound 154]	11 to 201 µg/mL (≈ 30 to 549 µM)	11 to 201 µg/mL (≈ 30 to 549 µM)		
CCCc1[nH]c(-c2ccc(-c3ccccc3C(F)(F)F)o2)nc1C [Compound 101]			3 (MIC100 of 2-5 μg/ml)	
Cc1[nH]c(-c2ccc(-c3ccccc3)s2)nc1-c1ccccc1 [Compound 74]			3 (MIC100 of 2-5 μg/ml)	
Cc1nc(-c2ccc(-c3ccc4[nH]ccc4c3)o2)[nH]c1-c1ccccc1 [Compound 144]	3 to 10 µg/mL (≈ 8.84 to 29.5 µM)	3 to 10 µg/mL (≈ 8.84 to 29.5 µM)		
CCCc1[nH]c(-c2ccc(-c3ccccc3Cl)s2)nc1C [Compound 82]				Antibacterial activity Staphylococcus aureus (MRSA) [1]: 3 (MIC100 of 3-10 μg/ml)
Cc1[nH]c(-c2ccc(-c3cccc(Br)c3)s2)nc1-c1ccccc1 [Compound 13]			2 (MIC100 of 6-10 μg/ml)	
CCCc1nc(-c2ccc(-c3ccc(C(F)(F)F)cc3)o2)[nH]c1C [Compound 104]			3 (MIC100 of 2-5 μg/ml)	Antibacterial activity Staphylococcus aureus (MRSA) [1]: 3 (MIC100 of 3-10 μg/ml)
Cc1[nH]c(-c2ccc(-c3ccc(F)cc3)s2)nc1-c1ccccc1 [Compound 7]			3 (MIC100 of 2-5 μg/ml)	
COc1ccc(-c2ccc(-c3nc(C)c(-c4ccc(O)cc4)[nH]3)o2)cc1 [Compound 79]			3 (MIC100 of 2-5 μg/ml)	
Cc1ccc(-c2ncc(-c3nc(-c4ccccc4)c(C)[nH]3)s2)cc1 [Compound 55]			3 (MIC100 of 2-5 μg/ml)	
Cc1cc(F)ccc1-c1ccc(-c2nc(-c3ccccc3)c(C)[nH]2)o1 [Compound 164]	3 to 10 µg/mL (≈ 9.03 to 30.1 µM)			

Compound	MIC [2, 4]	MIC [1]	Antibacterial activity Streptococcus pneumoniae [3]	other results
Cc1nc(-c2ccc(-c3ccc(O)cc3)o2)[nH]c1-c1ccccc1 [Compound 150]	11 to 201 µg/mL (≈ 34.8 to 635 µM)	11 to 201 µg/mL (≈ 34.8 to 635 µM)		
Cc1[nH]c(-c2ccc(-c3ccccc3F)o2)nc1-c1ccccc1 [Compound 162]	3 to 10 µg/mL (≈ 9.42 to 31.4 µM)	3 to 10 µg/mL (≈ 9.42 to 31.4 µM)		
CCCc1nc(-c2ccc(-c3c(C)cccc3C)o2)[nH]c1C [Compound 103]			3 (MIC100 of 2-5 μg/ml)	Antibacterial activity Staphylococcus aureus (MRSA) [1]: 3 (MIC100 of 3-10 μg/ml)
Cc1nc(-c2ccc(-c3ccc(O)cc3Cl)o2)[nH]c1-c1ccccc1 [Compound 158]	1 to 3 µg/mL (≈ 2.85 to 8.55 µM)	1 to 3 µg/mL (≈ 2.85 to 8.55 µM)		
Cc1nc(-c2ccc(-c3ccccc3OC(F)(F)F)o2)[nH]c1C [Compound 85]		1 to 3 µg/mL (≈ 3.1 to 9.31 µM)		
Cc1[nH]c(-c2ccc(-c3cccc(Cl)c3)s2)nc1-c1ccccc1 [Compound 12]			3 (MIC100 of 2-5 μg/ml)	
CCCc1nc(-c2ccc(-c3ccccc3OC)o2)[nH]c1C [Compound 102]			3 (MIC100 of 2-5 μg/ml)	
COc1cccc(-c2nc(-c3nc(-c4ccccc4)c(C)[nH]3)cs2)c1 [Compound 116]			3 (MIC100 of 2-5 μg/ml)	
Cc1[nH]c(-c2csc(-c3ccc(F)cc3)n2)nc1-c1ccccc1 [Compound 11]			3 (MIC100 of 2-5 μg/ml)	
Cc1nc(-c2ccc(-c3ccc(F)cc3)o2)[nH]c1-c1ccccc1 [Compound 148]	3 to 10 µg/mL (≈ 9.42 to 31.4 µM)	3 to 10 µg/mL (≈ 9.42 to 31.4 µM)		
Cc1nc(-c2ccc(-c3cc4ccccc4o3)o2)[nH]c1-c1ccccc1 [Compound 140]		11 to 201 µg/mL (≈ 32.3 to 591 µM)		
Cc1nc(-c2ccc(-c3cccc4[nH]ccc34)o2)[nH]c1-c1ccccc1 [Compound 138]		11 to 201 µg/mL (≈ 32.4 to 592 µM)		
Cc1nc(-c2ccc(-c3ccc(F)c(F)c3)o2)[nH]c1-c1ccccc1 [Compound 153]	3 to 10 µg/mL (≈ 8.92 to 29.7 µM)	3 to 10 µg/mL (≈ 8.92 to 29.7 µM)		
CCCc1[nH]c(-c2ccc(-c3cccc4[nH]ccc34)o2)nc1C [Compound 108]			2 (MIC100 of 6-10 μg/ml)	Antibacterial activity Staphylococcus aureus (MRSA) [1]: 2 (MIC100 of 11-201 μg/ml)
Cc1ccc(-c2ccc(-c3nc(-c4ccccc4)c(C)[nH]3)s2)cc1 [Compound 54]			2 (MIC100 of 6-10 μg/ml)	
CCCc1[nH]c(-c2ccc(-c3ccccc3[N+](=O)[O-])o2)nc1C [Compound 97]			2 (MIC100 of 6-10 μg/ml)	Antibacterial activity Staphylococcus aureus (MRSA) [1]: 2 (MIC100 of 11-201 μg/ml)
Cc1ccc(-c2nc(-c3nc(-c4ccccc4)c(C)[nH]3)co2)cc1 [Compound 57]			3 (MIC100 of 2-5 μg/ml)	
Cc1nc(-c2ccc(-c3ccc(O)cc3F)o2)[nH]c1-c1ccc(O)cc1 [Compound 120]			3 (MIC100 of 2-5 μg/ml)	Antibacterial activity Staphylococcus aureus (MSSA) ([2]; 24 h): 2 (MIC100 of 11-201 μg/ml)
CCCc1[nH]c(-c2ccc(-c3cc(F)ccc3C(F)(F)F)o2)nc1C [Compound 111]			3 (MIC100 of 2-5 μg/ml)	
CCCc1nc(-c2coc(-c3ccccc3C(F)(F)F)c2)[nH]c1C [Compound 112]				Antibacterial activity Staphylococcus aureus (MRSA) [1]: 3 (MIC100 of 3-10 μg/ml)
Cc1nc(-c2ccc(-c3ccc(N4CCN(C)CC4)cc3)o2)[nH]c1-c1ccccc1 [Compound 141]		20 to 50 µg/mL (≈ 50.2 to 125 µM)		
